Laboratory results from PubChem BioAssay AID2060498 (Molecular Pharmacology Branch, DTP, NCI, 2025).

System: 171881-019-R-J1-PDC tumor spheroids, viability
Assay: Anticancer human tumor 171881-019-R-J1-PDC patient-derived invasive breast carcinoma cell line growth inhibition [GQUAD]
Conditions: spheroids with HUVEC and MSC; for IC50: curve of first compound; for viability, T/C: stronger effect = lower value
Procedure, shortened: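 Tumor cells were grown as complex spheroids with HUVEC endothelial cells and mesenchymal stem cells as stroma. G-quadruplex stabilizers were combined with targeted agents over half-log dilutions from near the clinical Cmax, or from 10 microM.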

[1] = second compound 0.0316 µM, first compound 0.0316 µM
[2] = second compound 0.0316 µM, first compound 0.1 µM
[3] = second compound 0.0316 µM, first compound 0.316 µM
[4] = second compound 0.0316 µM, first compound 1 µM
[5] = second compound 0.0316 µM, first compound 3.16 µM
[6] = second compound 0.0316 µM, first compound 10 µM
[7] = second compound 0.1 µM, first compound 0.0316 µM
[8] = second compound 0.1 µM, first compound 0.1 µM
[9] = second compound 0.1 µM, first compound 0.316 µM
[10] = second compound 0.1 µM, first compound 1 µM
[11] = second compound 0.1 µM, first compound 3.16 µM
[12] = second compound 0.1 µM, first compound 10 µM
[13] = second compound 0.316 µM, first compound 0.0316 µM
[14] = second compound 0.316 µM, first compound 0.1 µM
[15] = second compound 0.316 µM, first compound 0.316 µM
[16] = second compound 0.316 µM, first compound 1 µM
[17] = second compound 0.316 µM, first compound 3.16 µM
[18] = second compound 0.316 µM, first compound 10 µM
[19] = second compound 1 µM, first compound 0.0316 µM
[20] = second compound 1 µM, first compound 0.1 µM
[21] = second compound 1 µM, first compound 0.316 µM
[22] = second compound 1 µM, first compound 1 µM
[23] = second compound 1 µM, first compound 3.16 µM
[24] = second compound 1 µM, first compound 10 µM
[25] = second compound 3.16 µM, first compound 0.0316 µM
[26] = second compound 3.16 µM, first compound 0.1 µM
[27] = second compound 3.16 µM, first compound 0.316 µM
[28] = second compound 3.16 µM, first compound 1 µM
[29] = second compound 3.16 µM, first compound 3.16 µM
[30] = second compound 3.16 µM, first compound 10 µM
[31] = second compound 10 µM, first compound 0.0316 µM
[32] = second compound 10 µM, first compound 0.1 µM
[33] = second compound 10 µM, first compound 0.316 µM
[34] = second compound 10 µM, first compound 1 µM
[35] = second compound 10 µM, first compound 3.16 µM
[36] = second compound 10 µM, first compound 10 µM
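Also: spheroids exposed to compounds for 7 days.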
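For viability, T/C in this document: 100% = DMSO vehicle control viability.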

## COc1cc(C2c3cc4c(cc3C(OC3OC5COC(C)OC5C(O)C3O)C3COC(=O)C23)OCO4)cc(OC)c1O (centres undefined) + CN(C)c1ccc(Nc2c3ccc(NC(=O)CCN4CCCC4)cc3nc3cc(NC(=O)CCN4CCCC4)ccc23)cc1
Second compound 0.0316 µM
  IC50: 4590 nM
Second compound 0.1 µM
  IC50: 3500 nM
Second compound 0.316 µM
  IC50: 2630 nM
Second compound 1 µM
  IC50: < 31.6 nM
Second compound 3.16 µM
  IC50: < 31.6 nM
Second compound 10 µM
  IC50: < 31.6 nM
[1]
  viability, T/C: 114%
[2]
  viability, T/C: 103%
[3]
  viability, T/C: 94.9%
[4]
  viability, T/C: 79%
[5]
  viability, T/C: 51.7%
[6]
  viability, T/C: 41.2%
[7]
  viability, T/C: 106%
[8]
  viability, T/C: 108%
[9]
  viability, T/C: 88.9%
[10]
  viability, T/C: 76%
[11]
  viability, T/C: 49.8%
[12]
  viability, T/C: 37.9%
[13]
  viability, T/C: 86.4%
[14]
  viability, T/C: 87.5%
[15]
  viability, T/C: 69.2%
[16]
  viability, T/C: 56.5%
[17]
  viability, T/C: 54.4%
[18]
  viability, T/C: 30.3%
[19]
  viability, T/C: 25.3%
[20]
  viability, T/C: 15.9%
[21]
  viability, T/C: 17.2%
[22]
  viability, T/C: 11.2%
[23]
  viability, T/C: 10.6%
[24]
  viability, T/C: 13.6%
[25]
  viability, T/C: 1.86%
[26]
  viability, T/C: 2.35%
[27]
  viability, T/C: 2.46%
[28]
  viability, T/C: 1.99%
[29]
  viability, T/C: 2.23%
[30]
  viability, T/C: 1.76%
[31]
  viability, T/C: 0.27%
[32]
  viability, T/C: 0.23%
[33]
  viability, T/C: 0.79%
[34]
  viability, T/C: 0.49%
[35]
  viability, T/C: 0.45%
[36]
  viability, T/C: 0.34%

## CC(=O)O[C@H]1C(=O)[C@@]2(C)[C@H]([C@H](OC(=O)c3ccccc3)[C@]3(O)C[C@H](OC(=O)[C@H](O)[C@@H](NC(=O)c4ccccc4)c4ccccc4)C(C)=C1C3(C)C)[C@]1(OC(C)=O)CO[C@@H]1C[C@@H]2O + CN(C)c1ccc(Nc2c3ccc(NC(=O)CCN4CCCC4)cc3nc3cc(NC(=O)CCN4CCCC4)ccc23)cc1
Second compound 0.0316 µM
  IC50: < 31.6 nM
Second compound 0.1 µM
  IC50: < 31.6 nM
Second compound 0.316 µM
  IC50: < 31.6 nM
Second compound 1 µM
  IC50: < 31.6 nM
Second compound 3.16 µM
  IC50: < 31.6 nM
Second compound 10 µM
  IC50: < 31.6 nM
[1]
  viability, T/C: 43.1%
[2]
  viability, T/C: 29.6%
[3]
  viability, T/C: 29.1%
[4]
  viability, T/C: 25.7%
[5]
  viability, T/C: 27.4%
[6]
  viability, T/C: 26.6%
[7]
  viability, T/C: 44.7%
[8]
  viability, T/C: 32.1%
[9]
  viability, T/C: 26.8%
[10]
  viability, T/C: 28.4%
[11]
  viability, T/C: 26.4%
[12]
  viability, T/C: 25.6%
[13]
  viability, T/C: 25.1%
[14]
  viability, T/C: 22.9%
[15]
  viability, T/C: 20.6%
[16]
  viability, T/C: 14.4%
[17]
  viability, T/C: 19.6%
[18]
  viability, T/C: 15.7%
[19]
  viability, T/C: 3.67%
[20]
  viability, T/C: 2.91%
[21]
  viability, T/C: 3.17%
[22]
  viability, T/C: 2.09%
[23]
  viability, T/C: 2.08%
[24]
  viability, T/C: 2.43%
[25]
  viability, T/C: 0.23%
[26]
  viability, T/C: 0.45%
[27]
  viability, T/C: 0.18%
[28]
  viability, T/C: 0.19%
[29]
  viability, T/C: 0.24%
[30]
  viability, T/C: 0.32%
[31]
  viability, T/C: 0.1%
[32]
  viability, T/C: 0.18%
[33]
  viability, T/C: 0.1%
[34]
  viability, T/C: 0.11%
[35]
  viability, T/C: 0.27%
[36]
  viability, T/C: 0.19%
